Measured values from paper PMC10223019, “Preclinical Evaluation of a PSMA-Targeting Homodimer with an Optimized Linker for Imaging of Prostate Cancer” (Molecules, 2023).
Where “and” joins values, the source holds several entries; their conditions need not be identical. Equal entries are not always repeated.

Experiments:
[1] = system: PSMA expressing LS174T cells; experiment: Internalization and cell uptake assay; format: cell-based, human; conditions: 2 h 37 °C
Experimental: LS174T human colon carcinoma cells transfected with human PSMA were obtained from Dr. Sandra Heskamp (Radboud UMC, Nijmegen). Cells were cultured in RPMI-1640 media supplemented with 2 mM glutamine, 10% fetal bovine serum (FBS) and 0.3 mg/mL G418 (Geneticin, Sigma Aldrich, St. Louis, MO, USA).
Cells were seeded (1.2 × 10^6 cells/well) and cultured to confluency for 24 h prior to experiments. We prepared 10^−9 M solutions of [^111In]In-PSMA-617, [^111In]In-22, and [^111In]In-30 in internalization media (RPMI, 20 mM HEPES, 1% BSA, pH 7.4). The media were removed from each well, and they were rinsed twice with PBS at rt. 2 mL of the radioactive compound was then added to each well and incubated at 37 °C for 2 h. For the internalization assay, the media containing radioactive compound were removed, and each well was washed twice with cold PBS. A total of 1 mL of Glycine buffer (50 mM glycine, 100 mM NaCl, pH 2.8) was added immediately and incubated for 10 min at rt. The glycine wash was then collected into counting tubes (membrane-bound fraction). An extra wash was performed and collected in the same tubes. A total of 1 mL of NaOH (1 M) was then added to each tube and left for 15 min at rt. The lysate (internalized fraction) was then collected in separate counting tubes, together with one extra NaOH wash. Data were normalized to 1,000,000 cells and percentage added dose.

[2] = system: BALB/c nude mice bearing LS174T PSMA-positive tumor xenografts; experiment: Ex vivo biodistribution studies; format: in vivo
Experimental: Animal experiments were performed in 8–10 weeks old male BALB/c nude mice (Janvier Labs, Le Genest-Saint-Isle, France). Animals were housed in individually ventilated cages (Blue line IVC, 4 mice per cage) under nonsterile standard conditions with cage enrichment present and free access to chlorophyll-free animal chow (Sniff GmbH, Soest, Germany) and water and acclimated for 1 week before experiments. Mice were subcutaneously inoculated with 4.0 × 10^6 LS174T cells in the right flank, diluted in 100 μL of cell suspension. Seven days after tumor cell inoculation, when xenografts were approximately 0.2–0.3 cm^3, the tracers were injected intravenously via the tail vein. All experiments were approved by the institutional Animal Welfare Committee and were conducted in accordance with the guidelines of the Revised Dutch Act on Animal Experimentation (WOD).
Mice were intravenously injected with ~1 nmol of either [^111In]In-PSMA-617, [^111In]In-22 or [^111In]In-30 with molar activity of 5 MBq/nmol for ex vivo biodistribution studies. Mice (n = 4/timepoint) were euthanized by cervical dislocation at 1, 4, and 24 h p.i. A block group was included, and mice were euthanized at 4 h p.i. Organs were collected in tubes and counted in the gamma counter, where the calibration factor was determined by measuring different known activities of indium-111.

[3] = Stability in phosphate-buffered saline (PBS), radio-HPLC; format: physicochemical; conditions: 24 h post-incubation, 37 °C, indium-111 labeled, intact fraction
Experimental: [^111In]In-22 or [^111In]In-30 (~10 MBq, 20 µL) was mixed with 80 μL of PBS (0.01 M, pH 7.4) and incubated at 37 °C for up to 24 h. A sample of the PBS solution was loaded directly onto the radio-HPLC at 1, 4, and 24 h post-incubation.

[4] = Stability in mouse serum, radio-HPLC; format: in vitro ADME; conditions: 24 h post-incubation, 37 °C, indium-111 labeled, intact fraction
Experimental: [^111In]In-22 or [^111In]In-30 (~35 MBq, 70 µL) was mixed with 330 μL of mouse serum and incubated at 37 °C for up to 24 h. After 1, 4, and 24 h incubation, 50 μL of the mouse serum solution was added to a separate vial containing 50 µL of acetonitrile. The sample was centrifuged at 5000× g for 20 min. The supernatant was analyzed by radio-HPLC.

[5] = LogD7.4 by shake-flask method (PBS/n-octanol); format: physicochemical; conditions: LogD7.4, PBS pH 7.4/n-octanol, indium-111 labeled compound
Experimental: The distribution coefficients (LogD7.4 values) were determined by a shake-flask method, in which 2 μL (~0.5 MBq) of the labeling solution ([^111In]In-22 or [^111In]In-30) were added to an Eppendorf tube containing 1 mL of PBS (0.01 M, pH 7.4)/n-octanol (v/v, 1:1). After vigorous vortexing, the solution was centrifuged at 2500× g for 15 min for phase separation. Samples (3 × 10 μL) of the two phases were taken out and measured in a gamma counter. LogD7.4 values were calculated by using the following equation: LogD7.4 = log [(counts in octanol phase)/(counts in aqueous phase)] and the experiment was performed in triplicate.

[6] = 4 h p.i. block group (excess unlabeled PSMA ligand)

Compound: CC(C)CC(NC(=O)C(Cc1ccccc1)NC(=O)C(CC(=O)O)NC(=O)CCCCCSC1=NNC(SCCCCCC(=O)NC(CC(=O)O)C(=O)NC(Cc2ccccc2)C(=O)NC(CC(C)C)C(O)CC(=O)NCCCCCC(=O)NCCCCC(NC(=O)NC(CCC(=O)O)C(=O)O)C(=O)O)=C2CCC(OC(=O)NCCCNC(=O)CN3CCN(CC(=O)[O-])CCN(CC(=O)[O-])CCN(CC(=O)[O-])CC3)CCCC12)C(O)CC(=O)NCCCCCC(=O)NCCCCC(NC(=O)NC(CCC(=O)O)C(=O)O)C(=O)O.[111In+3] (stereo not drawn) [[^111In]In-30]
- Internalized fraction ([1]; 10^-9 M, NaOH lysate): 3.51 ± 0.68 % AD
- Membrane-bound uptake ([1]; 10^-9 M, glycine wash): 0.26 ± 0.09 % AD
- Total uptake ([1]; 10^-9 M, normalized to 1,000,000 cells): 3.79 ± 0.74 % AD
- Internalized fraction as share of total uptake (internalization) [1]: 92% and 92.6%
- Membrane-bound uptake as share of total uptake [1]: 7.4%
- Blood uptake ([2]; 1 h p.i., i.v. ~1 nmol): 4.84 ± 1.44 % ID/g
- Bone uptake ([2]; 1 h p.i., i.v. ~1 nmol): 3.00 ± 0.53 % ID/g
- Heart uptake ([2]; 1 h p.i., i.v. ~1 nmol): 2.58 ± 0.79 % ID/g
- Intestines uptake ([2]; 1 h p.i., i.v. ~1 nmol): 0.87 ± 0.08 % ID/g
- Kidney uptake ([2]; 1 h p.i., i.v. ~1 nmol): 138.54 ± 1.44 % ID/g
- Liver uptake ([2]; 1 h p.i., i.v. ~1 nmol): 3.94 ± 0.26 % ID/g
- Lung uptake ([2]; 1 h p.i., i.v. ~1 nmol): 2.81 ± 0.36 % ID/g
- Muscle uptake ([2]; 1 h p.i., i.v. ~1 nmol): 1.13 ± 0.22 % ID/g
- Pancreas uptake ([2]; 1 h p.i., i.v. ~1 nmol): 1.47 ± 0.33 % ID/g
- Prostate uptake ([2]; 1 h p.i., i.v. ~1 nmol): 3.53 ± 2.05 % ID/g
- Skin uptake ([2]; 1 h p.i., i.v. ~1 nmol): 4.44 ± 1.06 % ID/g
- Spleen uptake ([2]; 1 h p.i., i.v. ~1 nmol): 3.30 ± 0.59 % ID/g
- Stomach uptake ([2]; 1 h p.i., i.v. ~1 nmol): 0.47 ± 0.34 % ID/g
- Tumor uptake ([2]; 1 h p.i., i.v. ~1 nmol): 4.95 ± 1.01 % ID/g
- Blood uptake [2, 6]: 0.78 ± 0.04 % ID/g
- Bone uptake [2, 6]: 1.27 ± 0.23 % ID/g
- Heart uptake [2, 6]: 0.82 ± 0.10 % ID/g
- Intestines uptake [2, 6]: 0.48 ± 0.03 % ID/g
- Kidney uptake [2, 6]: 120.93 ± 4.75 % ID/g
- Liver uptake [2, 6]: 1.84 ± 0.07 % ID/g
- Lung uptake [2, 6]: 0.84 ± 0.07 % ID/g
- Muscle uptake [2, 6]: 0.47 ± 0.08 % ID/g
- Pancreas uptake [2, 6]: 0.54 ± 0.07 % ID/g
- Prostate uptake [2, 6]: 0.94 ± 0.30 % ID/g
- Skin uptake [2, 6]: 1.42 ± 0.18 % ID/g
- Spleen uptake [2, 6]: 1.20 ± 0.14 % ID/g
- Stomach uptake [2, 6]: 0.33 ± 0.12 % ID/g
- Tumor uptake [2, 6]: 1.42 ± 0.14 % ID/g
- Blood uptake ([2]; 4 h p.i., i.v. ~1 nmol): 1.02 ± 0.29 % ID/g
- Bone uptake ([2]; 4 h p.i., i.v. ~1 nmol): 1.44 ± 0.54 % ID/g
- Heart uptake ([2]; 4 h p.i., i.v. ~1 nmol): 0.96 ± 0.22 % ID/g
- Intestines uptake ([2]; 4 h p.i., i.v. ~1 nmol): 0.92 ± 0.58 % ID/g
- Kidney uptake ([2]; 4 h p.i., i.v. ~1 nmol): 132.89 ± 11.12 % ID/g
- Liver uptake ([2]; 4 h p.i., i.v. ~1 nmol): 2.41 ± 0.35 % ID/g
- Lung uptake ([2]; 4 h p.i., i.v. ~1 nmol): 0.77 ± 0.52 % ID/g
- Muscle uptake ([2]; 4 h p.i., i.v. ~1 nmol): 0.64 ± 0.30 % ID/g
- Pancreas uptake ([2]; 4 h p.i., i.v. ~1 nmol): 0.66 ± 0.24 % ID/g
- Prostate uptake ([2]; 4 h p.i., i.v. ~1 nmol): 1.27 ± 0.69 % ID/g
- Skin uptake ([2]; 4 h p.i., i.v. ~1 nmol): 1.92 ± 0.49 % ID/g
- Spleen uptake ([2]; 4 h p.i., i.v. ~1 nmol): 1.40 ± 0.20 % ID/g
- Stomach uptake ([2]; 4 h p.i., i.v. ~1 nmol): 0.31 ± 0.08 % ID/g
- Tumor uptake ([2]; 4 h p.i., i.v. ~1 nmol): 2.94 ± 0.36 % ID/g
- Tumor-to-muscle (T/M) ratio ([2]; 24 h p.i.): 15
- Blood uptake ([2]; 24 h p.i., i.v. ~1 nmol): 0.09 ± 0.01 % ID/g
- Bone uptake ([2]; 24 h p.i., i.v. ~1 nmol): 0.60 ± 0.04 % ID/g
- Heart uptake ([2]; 24 h p.i., i.v. ~1 nmol): 0.21 ± 0.01 % ID/g
- Intestines uptake ([2]; 24 h p.i., i.v. ~1 nmol): 0.19 ± 0.06 % ID/g
- Kidney uptake ([2]; 24 h p.i., i.v. ~1 nmol): 26.86 ± 2.37 % ID/g
- Liver uptake ([2]; 24 h p.i., i.v. ~1 nmol): 0.80 ± 0.04 % ID/g
- Lung uptake ([2]; 24 h p.i., i.v. ~1 nmol): 0.28 ± 0.03 % ID/g
- Muscle uptake ([2]; 24 h p.i., i.v. ~1 nmol): 0.15 ± 0.03 % ID/g
- Pancreas uptake ([2]; 24 h p.i., i.v. ~1 nmol): 0.17 ± 0.00 % ID/g
- Prostate uptake ([2]; 24 h p.i., i.v. ~1 nmol): 0.40 ± 0.10 % ID/g
- Skin uptake ([2]; 24 h p.i., i.v. ~1 nmol): 0.77 ± 0.13 % ID/g
- Spleen uptake ([2]; 24 h p.i., i.v. ~1 nmol): 0.58 ± 0.04 % ID/g
- Stomach uptake ([2]; 24 h p.i., i.v. ~1 nmol): 0.11 ± 0.07 % ID/g
- Tumor uptake ([2]; 24 h p.i., i.v. ~1 nmol): 1.57 ± 0.17 % ID/g
- Tumor-to-muscle (T/M) ratio ([2]; at 1 and 4 h p.i.): 4–5
- Stability in PBS (%) [3]: 90.8%
- Stability in Mouse Serum (%) [4]: 90.1%
- logD [5]: −2.44 ± 0.07
